Data as given in patent US8754068B2, “Modified C-3 betulinic acid derivatives as HIV maturation inhibitors” (priority 2010, dated 2014).

Test system: recombinant NL4-3 virus (Renilla luciferase in nef, Gag P373S)
Test: HIV cell culture assay (luciferase reporter virus in MT-2 cells)
Format: cell-based
Conditions: NL43
Protocol: HIV cell culture assay—MT-2 cells and 293T cells were obtained from the NIH AIDS Research and Reference Reagent Program. MT-2 cells were propagated in RPMI 1640 media supplemented with 10% heat inactivated fetal bovine serum, […]. The 293T cells were propagated in DMEM media supplemented with 10% heat inactivated fetal bovine serum (FBS), 100 units/ml penicillin G and 100 μg/ml streptomycin. The proviral DNA clone of NL4-3 was obtained from the NIH AIDS Research and Reference Reagent Program. A recombinant NL4-3 virus, in which a section of the nef gene from NL4-3 was replaced with the Renilla luciferase gene, was used as a reference virus. In addition, residue Gag P373 was converted to P373S. Briefly, the recombinant virus was prepared by transfection of the altered proviral clone of NL4-3. Transfections were performed in 293T cells using LipofectAMINE PLUS from Invitrogen (Carlsbad, Calif.), according to manufacturer's instruction. The virus was titered in MT-2 cells using luciferase enzyme activity as a marker. Luciferase was quantitated using the Dual Luciferase kit from Promega (Madison, Wis.), with modifications to the manufacturer's protocol. The diluted Passive Lysis solution was pre-mixed with the re-suspended Luciferase Assay Reagent and the re-suspended Stop & Glo Substrate (2:1:1 ratio). Fifty (50) μL of the mixture was added to each aspirated well on assay plates and luciferase activity was measured immediately on a Wallac TriLux (Perkin-Elmer). Antiviral activities of inhibitors toward the recombinant virus were quantified by measuring luciferase activity in cells infected for 4-5 days with NLRluc recombinants in the presence serial dilutions of the inhibitor. Table 1 is the key for the data in Table 2.

Compound | EC50 [nM]
C=C(C)[C@@H]1CC[C@]2(C(=O)O)CC[C@]3(C)[C@H](CC[C@@H]4[C@@]5(C)CC=C(c6cccc(CCC(=O)O)c6)C(C)(C)[C@@H]5CC[C@]43C)[C@@H]12 [Example 4k, (1R,3aS,5aR,5bR,7aR,11aS,11bR,13aR,13bR)-9-(3-(2-carboxyethyl)phenyl)-5a,5b,8,8,11a-pentamethyl-1-(prop-1-en-2-yl)-2,3,3a,4,5,5a,5b,6,7,7a,8,11,11a,11b,12,13,13a,13b-octadecahydro-1H-cyclopenta[a]chrysene-3a-carboxylic acid] | < 1000
C=C(C)[C@@H]1CC[C@]2(C(=O)O)CC[C@]3(C)[C@H](CC[C@@H]4[C@@]5(C)CC=C(c6ccccc6CCC(=O)O)C(C)(C)[C@@H]5CC[C@]43C)[C@@H]12 [Example 4l, (1R,3aS,5aR,5bR,7aR,11aS,11bR,13aR,13bR)-9-(2-(2-carboxyethyl)phenyl)-5a,5b,8,8,11a-pentamethyl-1-(prop-1-en-2-yl)-2,3,3a,4,5,5a,5b,6,7,7a,8,11,11a,11b,12,13,13a,13b-octadecahydro-1H-cyclopenta[a]chrysene-3a-carboxylic acid] | > 1000
C=C(C)[C@@H]1CC[C@]2(C(=O)O)CC[C@]3(C)[C@H](CC[C@@H]4[C@@]5(C)CC=C(c6ccc(-c7cnc8ccccc8c7C(=O)O)cc6)C(C)(C)[C@@H]5CC[C@]43C)[C@@H]12 [Example 4m, 3-(4-((1R,3aS,5aR,5bR,7aR,11aS,11bR,13aR,13bR)-3a-carboxy-5a,5b,8,8,11a-pentamethyl-1-(prop-1-en-2-yl)-2,3,3a,4,5,5a,5b,6,7,7a,8,11,11a,11b,12,13,13a,13b-octadecahydro-1H-cyclopenta[a]chrysen-9-yl)phenyl)quinoline-4-carboxylic acid] | > 1000
C=C(C)[C@@H]1CC[C@]2(C(=O)O)CC[C@]3(C)[C@H](CC[C@@H]4[C@@]5(C)CC=C(c6ccc(C(=O)O)s6)C(C)(C)[C@@H]5CC[C@]43C)[C@@H]12 [Example 4n, 5-((1R,3aS,5aR,5bR,7aR,11aS,11bR,13aR,13bR)-3a-carboxy-5a,5b,8,8,11a-pentamethyl-1-(prop-1-en-2-yl)-2,3,3a,4,5,5a,5b,6,7,7a,8,11,11a,11b,12,13,13a,13b-octadecahydro-1H-cyclopenta[a]chrysen-9-yl)thiophene-2-carboxylic acid] | < 1000
C=C(C)[C@@H]1CC[C@]2(C(=O)O)CC[C@]3(C)[C@H](CC[C@@H]4[C@@]5(C)CC=C(c6ccc(C(=O)O)c(Cl)c6)C(C)(C)[C@@H]5CC[C@]43C)[C@@H]12 [Example 4o, (1R,3aS,5aR,5bR,7aR,11aS,11bR,13aR,13bR)-9-(4-carboxy-3-chlorophenyl)-5a,5b,8,8,11a-pentamethyl-1-(prop-1-en-2-yl)-2,3,3a,4,5,5a,5b,6,7,7a,8,11,11a,11b,12,13,13a,13b-octadecahydro-1H-cyclopenta[a]chrysene-3a-carboxylic acid] | < 1000
C=C(C)[C@@H]1CC[C@]2(CO)CC[C@]3(C)[C@H](CC[C@@H]4[C@@]5(C)CC=C(c6ccc(C(=O)O)c(Cl)c6)C(C)(C)[C@@H]5CC[C@]43C)[C@@H]12 [Example 5a, 2-chloro-4-((1R,3aS,5aR,5bR,7aR,11aS,11bR,13bR)-3a-(hydroxymethyl)-5a,5b,8,8,11a-pentamethyl-1-(prop-1-en-2-yl)-2,3,3a,4,5,5a,5b,6,7,7a,8,11,11a,11b,12,13,13a,13b-octadecahydro-1H-cyclopenta[a]chrysen-9-yl)benzoic acid] | < 1000
C=C(C)[C@@H]1CC[C@]2(CO)CC[C@]3(C)[C@H](CC[C@@H]4[C@@]5(C)CC=C(c6ccc(C(=O)O)cc6)C(C)(C)[C@@H]5CC[C@]43C)[C@@H]12 [Example 5b, 4-((1R,3aS,5aR,5bR,7aR,11aS,11bR,13bR)-3a-(hydroxymethyl)-5a,5b,8,8,11a-pentamethyl-1-(prop-1-en-2-yl)-2,3,3a,4,5,5a,5b,6,7,7a,8,11,11a,11b,12,13,13a,13b-octadecahydro-1H-cyclopenta[a]chrysen-9-yl)benzoic acid] | < 1000
C=C(C)[C@@H]1CC[C@]2(CO)CC[C@]3(C)[C@H](CC[C@@H]4[C@@]5(C)CC=C(c6ccc(C(=O)O)s6)C(C)(C)[C@@H]5CC[C@]43C)[C@@H]12 [Example 5c, 5-((1R,3aS,5aR,5bR,7aR,11aS,11bR,13bR)-3a-(hydroxymethyl)-5a,5b,8,8,11a-pentamethyl-1-(prop-1-en-2-yl)-2,3,3a,4,5,5a,5b,6,7,7a,8,11,11a,11b,12,13,13a,13b-octadecahydro-1H-cyclopenta[a]chrysen-9-yl)thiophene-2-carboxylic acid] | 230
C=C(C)[C@@H]1CC[C@]2(CO)CC[C@]3(C)[C@H](CC[C@@H]4[C@@]5(C)CC=C(c6csc(C(=O)O)c6)C(C)(C)[C@@H]5CC[C@]43C)[C@@H]12 [Example 5d, 4-((1R,3aS,5aR,5bR,7aR,11aS,11bR,13bR)-3a-(hydroxymethyl)-5a,5b,8,8,11a-pentamethyl-1-(prop-1-en-2-yl)-2,3,3a,4,5,5a,5b,6,7,7a,8,11,11a,11b,12,13,13a,13b-octadecahydro-1H-cyclopenta[a]chrysen-9-yl)thiophene-2-carboxylic acid] | < 1000
C=C(C)[C@@H]1CC[C@]2(CO)CC[C@]3(C)[C@H](CC[C@@H]4[C@@]5(C)CC=C(c6ccc(O)nc6)C(C)(C)[C@@H]5CC[C@]43C)[C@@H]12 [Example 5e, 5-((1R,3aS,5aR,5bR,7aR,11aS,13aR,13bR)-3a-(hydroxymethyl)-5a,5b,8,8,11a-pentamethyl-1-(prop-1-en-2-yl)-2,3,3a,4,5,5a,5b,6,7,7a,8,11,11a,11b,12,13,13a,13b-octadecahydro-1H-cyclopenta[a]chrysen-9-yl)pyridin-2-ol] | > 1000
C=C(C)[C@@H]1CC[C@]2(CO)CC[C@]3(C)[C@H](CC[C@@H]4[C@@]5(C)CC=C(c6ccc(O)c(F)c6)C(C)(C)[C@@H]5CC[C@]43C)[C@@H]12 [Example 5f, 2-fluoro-4-((1R,3aS,5aR,5bR,7aR,11aS,11bR,13aR,13bR)-3a-(hydroxymethyl)-5a,5b,8,8,11a-pentamethyl-1-(prop-1-en-2-yl)-2,3,3a,4,5,5a,5b,6,7,7a,8,11,11a,11b,12,13,13a,13b-octadecahydro-1H-cyclopenta[a]chrysen-9-yl)phenol] | < 1000
C=C(C)[C@@H]1CC[C@]2(CO)CC[C@]3(C)[C@H](CC[C@@H]4[C@@]5(C)CC=C(c6ccc(O)c(Cl)c6)C(C)(C)[C@@H]5CC[C@]43C)[C@@H]12 [Example 5g, 2-chloro-4-((1R,3aS,5aR,5bR,7aR,11aS,11bR,13aR,13bR)-3a-(hydroxymethyl)-5a,5b,8,8,11a-pentamethyl-1-(prop-1-en-2-yl)-2,3,3a,4,5,5a,5b,6,7,7a,8,11,11a,11b,12,13,13a,13b-octadecahydro-1H-cyclopenta[a]chrysen-9-yl)phenol] | > 1000
C=C(C)[C@@H]1CC[C@]2(CO)CC[C@]3(C)[C@H](CC[C@@H]4[C@@]5(C)CC=C(c6ccc(O)cc6C)C(C)(C)[C@@H]5CC[C@]43C)[C@@H]12 [Example 5h, 4-((1R,3aS,5aR,5bR,7aR,11aS,11bR,13aR,13bR)-3a-(hydroxymethyl)-5a,5b,8,8,11a-pentamethyl-1-(prop-1-en-2-yl)-2,3,3a,4,5,5a,5b,6,7,7a,8,11,11a,11b,12,13,13a,13b-octadecahydro-1H-cyclopenta[a]chrysen-9-yl)-3-methylphenol] | > 1000
C=C(C)[C@@H]1CC[C@]2(CO)CC[C@]3(C)[C@H](CC[C@@H]4[C@@]5(C)CC=C(c6ccc(NS(C)(=O)=O)cc6)C(C)(C)[C@@H]5CC[C@]43C)[C@@H]12 [Example 5i, N-(4-((1R,3aS,5aR,5bR,7aR,11aS,11bR,13aR,13bR)-3a-(hydroxymethyl)-5a,5b,8,8,11a-pentamethyl-1-(prop-1-en-2-yl)-2,3,3a,4,5,5a,5b,6,7,7a,8,11,11a,11b,12,13,13a,13b-octadecahydro-1H-cyclopenta[a]chrysen-9-yl)phenyl)methanesulfonamide] | > 1000
C=C(C)[C@@H]1CC[C@]2(CO)CC[C@]3(C)[C@H](CC[C@@H]4[C@@]5(C)CC=C(c6ccc(S(N)(=O)=O)cc6)C(C)(C)[C@@H]5CC[C@]43C)[C@@H]12 [Example 5j, 4-((1R,3aS,5aR,5bR,7aR,11aS,11bR,13aR,13bR)-3a-(hydroxymethyl)-5a,5b,8,8,11a-pentamethyl-1-(prop-1-en-2-yl)-2,3,3a,4,5,5a,5b,6,7,7a,8,11,11a,11b,12,13,13a,13b-octadecahydro-1H-cyclopenta[a]chrysen-9-yl)benzenesulfonamide] | < 1000
C=C(C)[C@@H]1CC[C@]2(CO)CC[C@]3(C)[C@H](CC[C@@H]4[C@@]5(C)CC=C(c6ccc(C(=O)O)cc6F)C(C)(C)[C@@H]5CC[C@]43C)[C@@H]12 [Example 5k, 3-fluoro-4-((1R,3aS,5aR,5bR,7aR,11aS,11bR,13aR,13bR)-3a-(hydroxymethyl)-5a,5b,8,8,11a-pentamethyl-1-(prop-1-en-2-yl)-2,3,3a,4,5,5a,5b,6,7,7a,8,11,11a,11b,12,13,13a,13b-octadecahydro-1H-cyclopenta[a]chrysen-9-yl)benzoic acid] | < 1000
